Laboratory results taken from US9078825B2, “Method for the production of bioadhesive compact matrices” (Università degli Studi di Genova, priority 2008, dated 2015).
Structures can show the parent of a compound that is named as a salt.

Assay: Heating of the active substance at 150° C. for 15 minutes (HPLC, DSC, TGA, HSM, spectroscopic investigations)
Type: physicochemical
Procedure: Physical Stability Studies on the Active Substances and the Excipients Used in the Formulation of the Tablets.
5.0 mg carefully weighed of every excipient/substance was placed in aluminium pans, closed with a suitable press and analyzed by means of DSC (Perkin Elmer 7) under nitrogen flow; the analysis was also carried out on the thermally-treated powders. The operating conditions utilised were the following: initial temperature (Tstart)=50° C.; final temperature (Tend) 250° C.; gradient=10° C./min.
The determination of the weight variations of the active substances and excipients, of the powder mixtures and the powders obtained by crushing the tablets was conducted through TGA 7 of Perkin Elmer, in nitrogen atmosphere, using the same temperatures and the same heating gradients used in the thermal heat treatments.

SMILES: COc1ccc([C@@H]2Sc3ccccc3N(CCN(C)C)C(=O)[C@@H]2OC(C)=O)cc1 [Diltiazem hydrochloride]
- physical or chemical modification after heating: did not involve any physical or chemical modification
